Data published in ChEMBL document CHEMBL4840351 (J Med Chem, 2021).
Activity calls are given as the source filed them. The rule behind the calls is not given here.

Columns and labels:
[1] = AUC(0 to 8 hrs) in CB-17 SCID mouse xenografted with human TMD8 cells at 7.5 mg/kg, po bid administered for 21 days; format: ADME, organism-based; design: route oral, time 21 day, dose 7.5 mg/kg; conditions: in vivo
TMD8 [2] = assay: Antitumor activity against human TMD8 cells xenografted in CB-17 SCID nude mouse assessed as tumor growth inhibition at 3.75 mg/kg, po bid administered for 21 days; format: functional; conditions: 504 h, time 21 day, read-out: TGI
[3] = Receptor occupancy at BTK in spleen of ICR mouse at 15 mg/kg, po after 1 hr by ELISA; format: functional
[4] = target: T1, Tyrosine-protein kinase ITK/TSK (Homo sapiens, UniProt Q08881); assay: Inhibition of full-length N-terminal GST-tagged ITK (2 to 620 residues) (unknown origin) expressed in Sf21 insect cells using NH2-ETVYSEVRK-biotin as substrate preincubated for 1 hr followed by ATP addition and measured after 2 hrs by ELISA
T1 sequence (Q08881 whole entry): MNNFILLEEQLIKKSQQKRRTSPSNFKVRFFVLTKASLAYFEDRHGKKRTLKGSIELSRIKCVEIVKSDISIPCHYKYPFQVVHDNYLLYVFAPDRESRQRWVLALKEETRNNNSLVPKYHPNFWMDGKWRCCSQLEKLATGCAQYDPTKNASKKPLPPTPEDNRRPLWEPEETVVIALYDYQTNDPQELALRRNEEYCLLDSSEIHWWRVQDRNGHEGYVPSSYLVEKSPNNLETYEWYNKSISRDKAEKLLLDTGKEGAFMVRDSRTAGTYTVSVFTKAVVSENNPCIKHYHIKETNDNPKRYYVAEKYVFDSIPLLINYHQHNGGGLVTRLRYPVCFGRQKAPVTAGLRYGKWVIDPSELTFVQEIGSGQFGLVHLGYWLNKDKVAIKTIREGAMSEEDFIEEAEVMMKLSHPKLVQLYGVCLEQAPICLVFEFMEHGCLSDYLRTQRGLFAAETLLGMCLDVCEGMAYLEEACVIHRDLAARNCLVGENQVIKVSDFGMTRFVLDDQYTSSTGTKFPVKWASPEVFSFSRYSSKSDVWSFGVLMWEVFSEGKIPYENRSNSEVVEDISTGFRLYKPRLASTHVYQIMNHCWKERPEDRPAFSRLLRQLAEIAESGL

[5] = target: Epidermal growth factor receptor (Homo sapiens, UniProt P00533); assay: Inhibition of N-terminal DYKDDDD-tagged EGFR (669 to 1210 residues) (unknown origin) expressed in Sf21 insect cells using NH2-ETVYSEVRK-biotin as substrate preincubated for 1 hr followed by ATP addition and measured after 2 hrs by ELISA
Sequence of Epidermal growth factor receptor (P00533 whole entry, the tested form may be a part): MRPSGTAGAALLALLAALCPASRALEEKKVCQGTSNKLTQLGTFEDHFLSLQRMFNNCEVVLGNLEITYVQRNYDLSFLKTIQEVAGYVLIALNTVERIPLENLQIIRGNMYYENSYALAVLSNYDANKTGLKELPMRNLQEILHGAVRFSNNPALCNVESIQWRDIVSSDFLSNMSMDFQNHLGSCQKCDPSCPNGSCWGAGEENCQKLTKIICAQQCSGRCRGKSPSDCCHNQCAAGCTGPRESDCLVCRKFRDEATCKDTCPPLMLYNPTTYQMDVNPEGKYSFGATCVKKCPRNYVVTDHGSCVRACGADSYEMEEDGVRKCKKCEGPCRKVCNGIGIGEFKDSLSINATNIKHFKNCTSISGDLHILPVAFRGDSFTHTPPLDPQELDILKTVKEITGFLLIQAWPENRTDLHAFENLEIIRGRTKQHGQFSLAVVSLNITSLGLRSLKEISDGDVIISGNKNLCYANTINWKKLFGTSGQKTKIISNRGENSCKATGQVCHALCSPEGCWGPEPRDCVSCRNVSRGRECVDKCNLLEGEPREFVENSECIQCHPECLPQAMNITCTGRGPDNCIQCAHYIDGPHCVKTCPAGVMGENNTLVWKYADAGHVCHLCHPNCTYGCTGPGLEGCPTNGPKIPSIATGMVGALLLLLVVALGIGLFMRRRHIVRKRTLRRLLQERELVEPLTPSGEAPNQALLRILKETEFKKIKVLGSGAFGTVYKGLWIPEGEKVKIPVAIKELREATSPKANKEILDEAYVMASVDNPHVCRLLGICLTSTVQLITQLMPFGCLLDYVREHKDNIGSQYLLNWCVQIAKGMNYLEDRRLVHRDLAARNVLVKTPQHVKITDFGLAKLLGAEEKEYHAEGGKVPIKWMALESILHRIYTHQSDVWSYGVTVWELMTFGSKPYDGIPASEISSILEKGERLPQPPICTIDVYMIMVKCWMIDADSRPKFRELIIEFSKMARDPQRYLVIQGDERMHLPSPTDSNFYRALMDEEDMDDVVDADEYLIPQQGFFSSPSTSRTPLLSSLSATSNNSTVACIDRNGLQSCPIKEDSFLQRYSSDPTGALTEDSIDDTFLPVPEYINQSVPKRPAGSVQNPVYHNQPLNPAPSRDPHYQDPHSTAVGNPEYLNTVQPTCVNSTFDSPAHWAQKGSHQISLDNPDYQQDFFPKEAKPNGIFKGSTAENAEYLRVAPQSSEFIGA

[6] = target: Tyrosine-protein kinase Tec (Homo sapiens, UniProt P42680); assay: Inhibition of TEC (unknown origin)
Sequence of Tyrosine-protein kinase Tec (P42680 whole entry): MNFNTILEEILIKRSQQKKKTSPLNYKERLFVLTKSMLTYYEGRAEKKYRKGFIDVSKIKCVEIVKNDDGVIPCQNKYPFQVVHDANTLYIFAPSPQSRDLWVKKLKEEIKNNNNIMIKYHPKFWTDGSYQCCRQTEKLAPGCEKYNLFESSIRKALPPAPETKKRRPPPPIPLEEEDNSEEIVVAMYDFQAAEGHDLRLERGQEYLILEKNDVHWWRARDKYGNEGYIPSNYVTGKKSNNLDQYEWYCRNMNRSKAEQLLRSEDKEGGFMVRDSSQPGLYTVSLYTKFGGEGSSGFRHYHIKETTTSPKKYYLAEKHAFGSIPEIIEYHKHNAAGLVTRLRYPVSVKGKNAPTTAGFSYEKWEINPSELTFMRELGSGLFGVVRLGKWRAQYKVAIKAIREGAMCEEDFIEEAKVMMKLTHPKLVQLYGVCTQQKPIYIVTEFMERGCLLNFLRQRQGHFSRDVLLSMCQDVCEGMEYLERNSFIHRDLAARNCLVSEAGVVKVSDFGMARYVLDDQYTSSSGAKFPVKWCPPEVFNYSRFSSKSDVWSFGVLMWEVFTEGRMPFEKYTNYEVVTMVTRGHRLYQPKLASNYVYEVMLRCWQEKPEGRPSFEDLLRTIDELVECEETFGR

[7] = Toxicity in CB-17 SCID mouse xenografted with human TMD8 cells assessed as change in body weight at 3.75 to 15 mg/kg, po bid administered for 21 days; format: organism-based; conditions: in vivo, 504 h, dose 3.75-15 mg/kg, time 21 day
SU-DHL-2 = assay: Antiproliferative activity against human SUDHL2 cells assessed as reduction in cell viability incubated for 72 hrs by celltiter-glo assay; conditions: SU-DHL-2, 72 h
Cytochrome P450 2D6 = Cytochrome P450 2D6 (Homo sapiens, UniProt P10635); assay: Inhibition of CYP2D6 in human liver microsomes using bufuralol as substrate incubated for 10 mins in presence of NADPH by LC-MS/MS analysis; format: ADME
Sequence of Cytochrome P450 2D6 (P10635 whole entry): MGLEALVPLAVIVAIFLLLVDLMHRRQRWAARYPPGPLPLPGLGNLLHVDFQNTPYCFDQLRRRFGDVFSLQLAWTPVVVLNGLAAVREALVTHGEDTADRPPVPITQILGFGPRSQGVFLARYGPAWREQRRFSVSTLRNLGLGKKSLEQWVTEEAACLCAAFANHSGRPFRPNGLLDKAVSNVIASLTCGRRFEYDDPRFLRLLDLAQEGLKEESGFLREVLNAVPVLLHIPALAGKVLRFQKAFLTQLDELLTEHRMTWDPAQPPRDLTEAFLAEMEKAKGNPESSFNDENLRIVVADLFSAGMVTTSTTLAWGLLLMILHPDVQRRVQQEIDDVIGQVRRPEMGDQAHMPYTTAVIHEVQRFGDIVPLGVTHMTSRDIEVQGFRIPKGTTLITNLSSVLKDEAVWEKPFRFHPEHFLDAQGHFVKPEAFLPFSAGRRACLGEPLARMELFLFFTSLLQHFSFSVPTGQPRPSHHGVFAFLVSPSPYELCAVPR

TMD8 [8] = assay: Induction of cell cycle arrest in human TMD8 cells assessed as accumulation of cells at G2 phase at 300 nM incubated for 48 hrs by PI staining based flow cytometric analysis (reference value: 4.92 %); format: functional
TMD8 [9] = assay: Induction of cell cycle arrest in human TMD8 cells assessed as accumulation of cells at G2 phase at 3 nM incubated for 48 hrs by PI staining based flow cytometric analysis (reference value: 4.92 %); format: functional
[10] = target: Tyrosine-protein kinase Blk (Homo sapiens, UniProt P51451); assay: Inhibition of BLK (unknown origin) at 1 uM relative to control
Sequence of Tyrosine-protein kinase Blk (P51451 2-505 limits assumed): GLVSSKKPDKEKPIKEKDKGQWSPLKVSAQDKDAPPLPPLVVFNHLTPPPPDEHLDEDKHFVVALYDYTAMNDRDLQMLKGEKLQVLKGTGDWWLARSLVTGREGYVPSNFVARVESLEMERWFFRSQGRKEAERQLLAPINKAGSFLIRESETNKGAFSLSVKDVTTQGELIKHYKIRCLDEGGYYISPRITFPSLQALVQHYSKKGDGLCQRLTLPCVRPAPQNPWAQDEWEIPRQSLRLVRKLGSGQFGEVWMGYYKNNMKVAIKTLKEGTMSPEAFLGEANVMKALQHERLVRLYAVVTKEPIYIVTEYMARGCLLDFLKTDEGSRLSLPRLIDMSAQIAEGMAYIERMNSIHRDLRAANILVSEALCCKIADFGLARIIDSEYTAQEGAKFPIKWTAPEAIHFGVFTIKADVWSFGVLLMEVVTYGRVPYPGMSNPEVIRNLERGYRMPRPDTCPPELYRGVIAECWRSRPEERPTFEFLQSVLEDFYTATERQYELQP

[11] = Toxicity in SFP CD-1 mouse assessed as mortality at 10 to 1280 mg/kg, po administered for 7 days; format: organism-based; conditions: in vivo, 168 h, dose 10-1280 mg/kg, time 7 day
[12] = target: Tyrosine-protein kinase BTK (Homo sapiens, UniProt Q06187, C481S); assay: Inhibition of BTK C481S mutant (unknown origin)
Sequence of Tyrosine-protein kinase BTK (Homo sapiens, UniProt Q06187, C481S) (Q06187 2-659 C481S limits assumed): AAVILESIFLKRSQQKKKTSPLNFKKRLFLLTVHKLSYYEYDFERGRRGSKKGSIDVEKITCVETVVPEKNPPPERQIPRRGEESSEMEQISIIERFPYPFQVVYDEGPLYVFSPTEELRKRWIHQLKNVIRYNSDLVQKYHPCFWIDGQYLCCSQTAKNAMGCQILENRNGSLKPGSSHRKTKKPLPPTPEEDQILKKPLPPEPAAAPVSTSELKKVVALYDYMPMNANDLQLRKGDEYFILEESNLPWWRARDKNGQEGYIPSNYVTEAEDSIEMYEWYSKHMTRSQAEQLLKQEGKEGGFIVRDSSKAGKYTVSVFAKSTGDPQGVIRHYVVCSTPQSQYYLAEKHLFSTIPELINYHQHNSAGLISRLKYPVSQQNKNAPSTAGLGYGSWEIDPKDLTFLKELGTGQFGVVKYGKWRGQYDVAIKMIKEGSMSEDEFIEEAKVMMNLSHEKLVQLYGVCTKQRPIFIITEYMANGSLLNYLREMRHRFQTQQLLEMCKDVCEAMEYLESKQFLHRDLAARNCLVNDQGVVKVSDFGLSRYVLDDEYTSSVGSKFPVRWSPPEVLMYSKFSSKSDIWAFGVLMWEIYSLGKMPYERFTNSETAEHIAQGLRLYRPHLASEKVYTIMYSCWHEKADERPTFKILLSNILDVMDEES

[13] = Cmax in CB-17 SCID mouse xenografted with human TMD8 cells at 7.5 mg/kg, po bid administered for 21 days; format: ADME, organism-based; design: route oral, dose 7.5 mg/kg, time 21 day; conditions: in vivo
[14] = Oral bioavailability in Sprague-Dawley rat at 5 mg/kg measured upto 24 hrs by LC/MS/MS analysis; format: ADME, organism-based; conditions: in vivo
[15] = AUC in Sprague-Dawley rat at 5 mg/kg, po measured upto 24 hrs by LC/MS/MS analysis; format: ADME, organism-based; design: route oral, dose 5 mg/kg, time <=24; conditions: in vivo
Cytochrome P450 3A4 = Cytochrome P450 3A4 (Homo sapiens, UniProt P08684); assay: Inhibition of CYP3A4T in human liver microsomes using midazolam as substrate incubated for 10 mins in presence of NADPH by LC-MS/MS analysis; format: ADME
Sequence of Cytochrome P450 3A4 (P08684 whole entry): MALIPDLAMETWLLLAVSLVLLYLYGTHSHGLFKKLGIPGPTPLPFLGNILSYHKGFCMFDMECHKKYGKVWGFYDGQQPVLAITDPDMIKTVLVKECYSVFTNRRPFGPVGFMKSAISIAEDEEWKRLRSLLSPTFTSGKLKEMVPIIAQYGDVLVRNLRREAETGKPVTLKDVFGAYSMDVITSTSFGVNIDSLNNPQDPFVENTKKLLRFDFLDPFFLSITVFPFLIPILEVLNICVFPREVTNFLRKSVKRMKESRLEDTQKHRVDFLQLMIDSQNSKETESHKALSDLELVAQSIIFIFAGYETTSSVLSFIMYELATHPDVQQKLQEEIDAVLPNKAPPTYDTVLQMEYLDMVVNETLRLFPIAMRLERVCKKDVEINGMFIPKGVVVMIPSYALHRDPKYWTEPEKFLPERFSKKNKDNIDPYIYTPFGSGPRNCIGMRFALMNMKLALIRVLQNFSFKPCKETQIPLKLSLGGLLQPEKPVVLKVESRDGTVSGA

Raji = assay: Antiproliferative activity against human Raji cells assessed as reduction in cell viability incubated for 72 hrs by celltiter-glo assay
[16] = target: T2, Tyrosine-protein kinase BTK (Homo sapiens, UniProt Q06187); assay: Inhibition of BTK in human TMD8 cells assessed as reduction in BTK autophosphorylation at Tyr 223 residue after 4 hrs by Western blot analysis; format: cell-based
T2 sequence (Q06187 whole entry): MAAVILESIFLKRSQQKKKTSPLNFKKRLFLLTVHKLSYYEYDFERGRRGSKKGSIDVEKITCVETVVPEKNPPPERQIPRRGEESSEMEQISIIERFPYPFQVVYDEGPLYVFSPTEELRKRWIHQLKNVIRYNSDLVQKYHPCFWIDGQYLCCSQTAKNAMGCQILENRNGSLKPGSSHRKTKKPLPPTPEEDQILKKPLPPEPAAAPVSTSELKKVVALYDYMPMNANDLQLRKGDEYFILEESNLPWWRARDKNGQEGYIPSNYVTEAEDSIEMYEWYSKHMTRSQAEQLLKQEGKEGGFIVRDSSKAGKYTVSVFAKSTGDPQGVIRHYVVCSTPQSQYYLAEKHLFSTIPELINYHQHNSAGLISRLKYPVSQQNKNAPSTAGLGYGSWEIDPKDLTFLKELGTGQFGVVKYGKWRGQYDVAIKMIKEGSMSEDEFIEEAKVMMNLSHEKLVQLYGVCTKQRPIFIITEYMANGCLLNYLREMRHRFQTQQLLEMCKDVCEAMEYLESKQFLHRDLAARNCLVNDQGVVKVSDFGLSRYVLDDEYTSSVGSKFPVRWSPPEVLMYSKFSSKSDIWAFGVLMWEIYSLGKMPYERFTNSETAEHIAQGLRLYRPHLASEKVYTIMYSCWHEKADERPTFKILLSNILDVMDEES

[17] = Toxicity in SFP CD-1 mouse assessed as change in temperature at 10 to 1280 mg/kg, po administered for 7 days; format: organism-based; conditions: in vivo, 168 h, dose 10-1280 mg/kg, time 7 day
[18] = Receptor occupancy at BTK in PBMC of ICR mouse at 15 mg/kg, po after 24 hrs by ELISA; format: functional
[19] = Half life in Sprague-Dawley rat at 5 mg/kg, iv measured upto 24 hrs by LC/MS/MS analysis; format: ADME, organism-based; conditions: in vivo
[20] = Toxicity in SFP CD-1 mouse assessed as change in behavior at 10 to 1280 mg/kg, po administered for 7 days; format: organism-based; conditions: in vivo, 168 h, dose 10-1280 mg/kg, time 7 day
[21] = Clearance in Sprague-Dawley rat at 5 mg/kg, iv measured upto 24 hrs by LC/MS/MS analysis; format: ADME, organism-based; conditions: in vivo
[22] = Volume of distribution in Sprague-Dawley rat at 5 mg/kg, iv measured upto 24 hrs by LC/MS/MS analysis; format: ADME, organism-based; conditions: in vivo
NAMALVA = assay: Antiproliferative activity against human NAMALWA cells assessed as reduction in cell viability incubated for 72 hrs by celltiter-glo assay
TMD8 [23] = assay: Antitumor activity against human TMD8 cells xenografted in CB-17 SCID nude mouse assessed as tumor growth inhibition at 15 mg/kg, po bid administered for 21 days; format: functional; conditions: 504 h, time 21 day, read-out: TGI
[24] = target: T2, Tyrosine-protein kinase BTK; assay: Inhibition of BTK in human TMD8 cells assessed as reduction in PLCgamma2 phosphorylation at Tyr 1217 residue at 0 to 1000 nM after 4 hrs by Western blot analysis; format: cell-based; conditions: dose 0-1000 nM
[25] = Half life in Sprague-Dawley rat at 5 mg/kg, po measured upto 24 hrs by LC/MS/MS analysis; format: ADME, organism-based; conditions: in vivo

SMILES: C=CC(=O)N1CCCC[C@H]1c1nc(-c2ccc(C(=O)Nc3cc(C(F)(F)F)ccn3)cc2)c(C(N)=O)n1N
- AUC at 504 h [1]: 1780 ng·h/mL
- inhibition in vivo at 3.75 mg/kg (TMD8 [2]): 81%
- Occ [3]: 95%
- IC50 [4]: 0.847 µM
- IC50 [5]: 0.433 µM
- IC50 [6]: 0.0157 µM
- Activity [7]: Non-Toxic
- IC50 (SU-DHL-2): 5.5 µM
- IC50 (Cytochrome P450 2D6): > 10 µM
- Activity (TMD8 [8]): 3.79%
- Activity (TMD8 [9]): 7.94%
- inhibition [10]: > 80%
- Activity [11]: Non-Toxic
- IC50 [12]: > 10 µM
- Cmax [13]: 1000 ng/mL
- bioavailability [14]: 31.4%
- AUC at 24 h [15]: 2000 ng·h/mL
- IC50 (Cytochrome P450 3A4): > 10 µM
- IC50 (Raji): 4.3 µM
- IC50 [16]: 0.00897 µM
- Activity [17]: Non-Toxic
- Occ [18]: 91%
- half-life [19]: 1.32 h
- Activity [20]: Non-Toxic
- clearance [21]: 13.4 mL/min/kg
- Vd [22]: 1.5 L/kg
- IC50 (NAMALVA): 4.1 µM
- inhibition in vivo at 15 mg/kg (TMD8 [23]): 106%
- inhibition [24]: Active
- half-life [25]: 1.35 h
